Columns and labels:
[1] = biological target: T1, mutant BKCa channel (G803D/N806K) (Rattus norvegicus, UniProt Q62976, G803D/N806K); assay: Cell-based TI+ fluorescence (FluxOR) assay in AD-293 cells
T1 construct: expressed in transfected cells
Procedure: AD-293 cells (Lee et al., 2013), as a modified HEK293 cell for expressing a mutant BKCa channel, were placed in DMEM (Dulbecco's Modified Eagle's medium) supplemented with 10% fetal bovine serum and 1 mg/ml geneticin (Gibco) as an antibiotic. The cells were cultured under a humidified condition of 5% CO2 and 37° C.
AD-293 cells stably expressing the mutant BKCa channel (G803D/N806K) were used for cell-based assays (Lee et al., 2013). Approximately 20,000 cells/well were inoculated on a black-wall assay plate (Corning Incorporated) coated with poly-D-lysine (Sigma-Aldrich), which is 96-well clear-bottom. A FluxOR™ […] (Invitrogen) was used for initial screening of compound libraries, and for further assay of candidate compounds. Experiments were performed according to the manufacturer's following guidelines: growth medium was replaced with 80 μl/well of loading buffer containing FluxOR™ fluorescent dye, and incubation was carried out for 1 hour under a light-free condition. After the incubation, the loading buffer was replaced with 100 μl/well of assay buffer containing various concentrations of compounds of interest, followed by incubation for 20 minutes to 30 minutes. DMSO (1%) was vehicle and the vehicle was used for all test compounds. CTBIC (Cormemis et al. 2005; Lee et al. 2012), previously identified as an activator of the BKCa channel, was used as a positive control. For fluorescence measurements, synergy TM H1 hybrid multi-mode microplate reader (BioTek Instrument Inc., Winnoski, Vt.) and Cen5 software was used in initial screening. For additional assays, Flexstation 3 multi-mode microplate reader (Molecular Devices) and SoftMax®Pro software were used, respectively. A fluorescence signal was obtained at an excitation wavelength of 485 nm and an emission wavelength of 528 nm. Membrane polarization was induced by a stimulus buffer containing thallium ion. The fluorescence signal was measured under two conditions: every 10 seconds for 2 minutes before treating the stimulation buffer and then every 10 seconds for 3 minutes after addition of stimulation buffer for synergy H1, and every 2 seconds for 20 seconds before stimulus buffer treatment, and then every 2 seconds for 160 seconds after adding the stimulus buffer for FlexStation 3.
A fluorescence signal change was measured based on a relative fluorescence unit (RFU) or F/F0 where F0 is ta minimum fluorescence value of each fluorescence trace. To quantitatively compare activation effects of kurarinone and its derivatives, an initial fluorescence increase was calculated using first three points after treatment with the stimulation buffer, and a linear slope was predicted using OriginPro 9.1 (OriginLab Corp., Northampton, Mass.).

rat bladder strips = assay: Isometric tension recording of bladder smooth muscle strips (ACh-induced contraction); settings: 100 μM, 30 min pre-incubation, 1 μM ACh, compared to vehicle, n=6
Procedure: […] tension recording of UBSM experiment was performed by a known method (Dela Pena et al. 2009; Kullmann et al. 2014). In short, a male Sprague-Dawley rat (300-350 g) was euthanized by CO2 choking. Then, the bladder of the rat was excised. The bladder was longitudinally divided into four strips (approximately 2×8 mm). Each separated strip was clipped between a static mount and a force-displacement transducer. Then, the clipped strips were suspended in a temperature-controlled (37° C.) organ bath containing 10 ml of Krebs solution ((mM): 118.4 NaCl, 4.7 KCl, 1.2 KH2PO4, 1.2 MgSO4, 25.0 NaHCO3, 2.5 CaCl2, and 12.2 glucose; pH 7.35-7.40). Then, a mixture of 95% 02 and 5% CO2 was used to continuously generate bubbles in the organ bath. Each UBSM strip was stretched to 1.0 gram of an optimal isometric tension, and was equilibrated for 60 minutes. […] After reaching the equilibration, the strips were stabilized via repeated application of acetylcholine (1 μM) until a continuous reaction was recorded. […] Relaxation was expressed as a percentage reduction in the tension due to acetylcholine-induced contraction. […] Changes in the isometric tension were recorded using a Power Lab Data Acquisition System (ADInstruments) associated with a computer with Lab Chart Software (Version 7, AD Instruments) installed therein. […]

T1 sequence (Q62976 whole entry G803D/N806K): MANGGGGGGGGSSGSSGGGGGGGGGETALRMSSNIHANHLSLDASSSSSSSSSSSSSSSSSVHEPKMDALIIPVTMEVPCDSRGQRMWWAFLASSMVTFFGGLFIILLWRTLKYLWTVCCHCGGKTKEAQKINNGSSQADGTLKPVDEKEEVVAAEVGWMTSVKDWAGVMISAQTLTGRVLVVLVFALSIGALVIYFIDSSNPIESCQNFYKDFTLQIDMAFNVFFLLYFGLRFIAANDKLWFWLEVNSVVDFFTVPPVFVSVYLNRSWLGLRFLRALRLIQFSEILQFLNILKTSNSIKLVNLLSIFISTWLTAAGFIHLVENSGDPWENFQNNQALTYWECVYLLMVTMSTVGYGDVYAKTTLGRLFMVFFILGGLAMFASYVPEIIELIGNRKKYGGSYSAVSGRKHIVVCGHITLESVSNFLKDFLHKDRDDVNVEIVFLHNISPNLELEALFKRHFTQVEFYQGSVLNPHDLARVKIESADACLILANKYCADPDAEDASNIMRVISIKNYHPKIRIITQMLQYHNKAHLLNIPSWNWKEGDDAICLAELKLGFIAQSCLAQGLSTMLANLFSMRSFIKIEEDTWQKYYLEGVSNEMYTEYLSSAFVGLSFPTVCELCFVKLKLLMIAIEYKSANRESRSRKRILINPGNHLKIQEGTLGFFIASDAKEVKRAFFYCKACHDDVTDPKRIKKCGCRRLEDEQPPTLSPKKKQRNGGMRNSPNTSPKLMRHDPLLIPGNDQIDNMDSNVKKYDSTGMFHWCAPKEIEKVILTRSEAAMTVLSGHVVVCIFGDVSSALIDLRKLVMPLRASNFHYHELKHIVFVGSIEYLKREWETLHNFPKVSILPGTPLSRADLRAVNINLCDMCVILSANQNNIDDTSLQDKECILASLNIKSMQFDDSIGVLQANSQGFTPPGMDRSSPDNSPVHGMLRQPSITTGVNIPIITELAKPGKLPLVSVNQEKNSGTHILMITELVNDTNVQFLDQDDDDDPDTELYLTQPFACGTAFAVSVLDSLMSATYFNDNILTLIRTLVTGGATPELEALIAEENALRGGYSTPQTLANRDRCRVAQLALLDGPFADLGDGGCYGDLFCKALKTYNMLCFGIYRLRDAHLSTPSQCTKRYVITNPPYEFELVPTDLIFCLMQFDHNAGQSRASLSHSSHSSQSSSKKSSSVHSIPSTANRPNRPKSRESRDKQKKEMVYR

TI+ fluorescence increase in library screening ([1]; 5 μM final concentration, compared to vehicle (1% DMSO), among 794 natural compounds): strongest fluorescence increase
TI+-fluorescence enhancement (initial RFU increase) ([1]; 10 μM, n=4): strong fluorescence increase
concentration dependence of TI+ fluorescence ([1]; 3, 5, 10, 30 μM): increased in a dose-dependent manner
Structure (SMILES): C=C(C)[C@H](CC=C(C)C)Cc1c(O)cc(OC)c2c1O[C@H](c1ccc(O)cc1O)CC2=O [kurarinone]
relaxation effect on ACh-induced contraction (rat bladder strips): 58.2±6.2%
